# Reference: patent publication US10294202B2, “Pyrrolidinones as herbicides” (FMC Corporation, priority 2013, dated 2019)
# Legend:
# [1] = system: chickweed; experiment: Test C postemergence herbicide test; assay type: in vivo, Stellaria media
# Text: At the same time, plants selected from these crop and weed species and also barley (winter barley, Hordeum vulgare), […]), chickweed (common chickweed, Stellaria media), deadnettle (henbit deadnettle, Lamium amplexicaule), and canarygrass (littleseed canarygrass, Phalaris minor) were planted in pots containing Redi-Earth® planting medium (Scotts Company, 14111 Scottslawn Road, Marysville, Ohio 43041) comprising spaghnum peat moss, vermiculite, wetting agent and starter nutrients and treated with postemergence applications of test chemicals formulated in the same manner. Plants ranged in height from 2 to 18 cm (1- to 4-leaf stage) for postemergence treatments. Treated plants and controls were maintained in a greenhouse for 13 to 15 days, after which time all species were compared to controls and visually evaluated. Plant response ratings, summarized in Table C, are based on a scale of 0 to 100 where 0 is no effect and 100 is complete control. A dash (-) response means no test result.
# [2] = system: blackgrass; experiment: Test A postemergence herbicide test; assay type: in vivo, Alopecurus myosuroides
# Procedure, shortened: (§1)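 Ratings compare treated with untreated plants roughly 10 days after a postemergence application made at the one- to two-leaf stage. Scoring uses 0–100, where 0 means no effect and 100 complete control.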
# [3] = system: galium; experiment: Test A postemergence herbicide test; assay type: in vivo, Galium aparine
# Procedure, shortened: as §1
# [4] = system: ragweed; experiment: Test A pre-/postemergence herbicide test; assay type: in vivo, Ambrosia elatior
# Procedure, shortened: (§2)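 Formulated compound (non-phytotoxic solvent, surfactant) sprayed pre- onto soil of seeded loam/sand pots or post- onto seedlings at 1–2 leaves; ~10 d greenhouse; 0–100 visual control rating versus untreated.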
# [5] = system: morningglory; experiment: Test A pre-/postemergence herbicide test; assay type: in vivo, Ipomoea spp.; conditions: for Morningglory plant response rating: Preemergence, visual rating on 0 to 100 scale (0 no effect, 100 complete control)
# Procedure, shortened: as §2
# [6] = system: velvetleaf; experiment: Test A pre-/postemergence herbicide test; assay type: in vivo, Abutilon theophrasti
# Procedure, shortened: as §2
# [7] = system: crabgrass, large; experiment: Test A pre-/postemergence herbicide test; assay type: in vivo, Digitaria sanguinalis
# Procedure, shortened: as §2
# [8] = system: barnyardgrass; experiment: Test C flooded paddy test; assay type: in vivo, Echinochloa crus-galli; conditions: Flood
# Procedure, shortened: (§3)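 Visual ratings from 0, no effect, to 100, complete control, were made against untreated controls after 13–15 greenhouse days. Compounds had gone straight into paddy water 3 cm above the soil, kept at that depth, on 2-leaf-stage plants.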
# [9] = system: ducksalad; experiment: Test C flooded paddy test; assay type: in vivo, Heteranthera limosa; conditions: Flood
# Procedure, shortened: as §3
# [10] = 31 g ai/ha, scale 0 to 100 (0 no effect, 100 complete control)
# [11] = 62 g ai/ha, scale 0 (no effect) to 100 (complete control)
# [12] = 125 g ai/ha, scale 0 to 100 (0 no effect, 100 complete control)
# [13] = 250 g ai/ha, scale 0 to 100 (0 no effect, 100 complete control)
# [14] = 125 g ai/ha, 0 to 100 scale, 0 is no effect, 100 is complete control
# [15] = 500 g ai/ha, 0 to 100 scale (0 no effect, 100 complete control)
# [16] = Postemergence, 125 g ai/ha, visual rating on 0 to 100 scale (0 no effect, 100 complete control), approx. 10 days
# [17] = Postemergence, 500 g ai/ha, 0 to 100 scale (0 no effect, 100 complete control)
# [18] = Preemergence, 125 g ai/ha, 0 to 100 scale where 0 is no effect and 100 is complete control
# [19] = preemergence, 500 g ai/ha, 0 to 100 scale, 0 is no effect and 100 is complete control
# [20] = Postemergence, 125 g ai/ha, 0 to 100 scale, 0 no effect, 100 complete control
# [21] = preemergence, 500 g ai/ha, 0 to 100 scale
# [22] = 31 g ai/ha, scale 0 (no effect) to 100 (complete control)
# [23] = 62 g ai/ha, scale 0 to 100 (0 no effect, 100 complete control)
# [24] = Preemergence, 125 g ai/ha, visual rating on 0 to 100 scale (0 no effect, 100 complete control)
# [25] = 125 g ai/ha, visual rating on 0 to 100 scale (0 no effect, 100 complete control), approx. 10 days
# [26] = Preemergence, 500 g ai/ha, visual rating on 0 to 100 scale (0 no effect, 100 complete control)
# [27] = 31 g ai/ha, scale of 0 to 100 where 0 is no effect and 100 is complete control, 13 to 15 days
# [28] = 62 g ai/ha, scale of 0 to 100 where 0 is no effect and 100 is complete control, 13 to 15 days
# [29] = 125 g ai/ha, scale of 0 to 100 where 0 is no effect and 100 is complete control, 13 to 15 days
# [30] = 250 g ai/ha, scale of 0 to 100 where 0 is no effect and 100 is complete control, 13 to 15 days
# [31] = 125 g ai/ha, 0 to 100 scale, 0 no effect, 100 complete control
# [32] = 125 g ai/ha, visual rating, 0 to 100 scale, 0 no effect, 100 complete control, approximately 10 days, preemergence
# [33] = Postemergence, 1000 g ai/ha, 0 to 100 scale (0 no effect, 100 complete control)
# [34] = Preemergence, 1000 g ai/ha, visual rating on 0 to 100 scale (0 no effect, 100 complete control), approx. 10 days
SMILES,"Plant response rating, Chickweed [1, 10]","Plant response rating, Chickweed [1, 11]","Plant response rating, Chickweed [1, 12]","Plant response rating, Chickweed [1, 13]","Plant response rating, Blackgrass [2, 14]","Plant response rating, Blackgrass [2, 15]","Plant response rating, Galium [3, 14]","Plant response rating, Galium [3, 15]","Plant response rating, Ragweed [4, 16]","Plant response rating, Ragweed [4, 17]","Plant response rating, Ragweed [4, 18]","Plant response rating, Ragweed [4, 19]","Plant response rating, Chickweed [1, 22]","Plant response rating, Chickweed [1, 23]","Plant response rating, Blackgrass [2, 25]","Plant response rating, Galium [3, 25]","Plant response rating, Barnyardgrass [8, 29]","Plant response rating, Ducksalad [9, 29]",other results
O=C1NCC(c2cc(F)cc(F)c2)C1C(=O)Nc1ccc(F)cc1F (racemic) [Compound 278],0,0,0,0,30,60,40,50,0,0,0,0,,,,,,,
O=C1NCC(c2ccc(F)c(C(F)(F)F)c2)C1C(=O)Nc1ccccc1F (racemic) [Compound 76],,,65,80,,,,,,,,,40,40,,,,,"Plant response rating, Morningglory [5, 20]: 20; Plant response rating, Morningglory [5, 17]: 40; Morningglory plant response rating ([5]; 125 g ai/ha): 0; Plant response rating, Morningglory [5, 21]: 50; Plant response rating, Velvetleaf [6, 20]: 20; Plant response rating, Velvetleaf [6, 17]: 60; Velvetleaf plant response rating [6, 24]: 0; Plant response rating, Velvetleaf [6, 21]: 0; Plant response rating, Crabgrass, Large [7, 20]: 90; Plant response rating, Crabgrass, Large [7, 17]: 90; Crabgrass, Large plant response rating [7, 24]: 90; Plant response rating, Crabgrass, Large [7, 21]: 90"
CN1CC(c2ccc(F)c(F)c2)C(C(=O)Nc2ccccc2F)C1=O (stereo not shown) [Compound 302],0,0,5,70,,60,,60,0,0,0,,,,40,60,,,"Ragweed plant response rating [4, 26]: 30"
O=C1NCC(c2cccc(Br)c2)C1C(=O)Nc1cccc(F)c1F (stereo not shown) [Compound 309],30,50,65,70,,70,,70,0,0,0,,,,60,60,,,
O=C1NCC(c2ccccc2)C1C(=O)Nc1ccccc1F (racemic) [Compound 81],,,0,0,,,,,,,,,0,0,,,,,"Plant response rating, Morningglory [5, 20]: 0; Plant response rating, Morningglory [5, 17]: 0; Morningglory plant response rating ([5]; 125 g ai/ha): 0; Plant response rating, Morningglory [5, 21]: 20; Plant response rating, Velvetleaf [6, 20]: 0; Plant response rating, Velvetleaf [6, 17]: 0; Velvetleaf plant response rating [6, 24]: 0; Plant response rating, Velvetleaf [6, 21]: 0; Plant response rating, Crabgrass, Large [7, 20]: 50; Plant response rating, Crabgrass, Large [7, 17]: 80; Crabgrass, Large plant response rating [7, 24]: 80; Plant response rating, Crabgrass, Large [7, 21]: 90"
O=C1NCC(c2cc(F)cc(F)c2)C1C(=O)Nc1cccc(F)c1F (racemic) [Compound 279],5,75,30,5,60,70,40,50,0,0,0,0,,,,,,,
O=C1NCC(c2cccc(C(F)(F)F)c2)C1C(=O)Nc1ccccc1Cl (stereo not shown) [Compound 312],,,,,,50,,50,20,40,0,,,,40,30,30,65,"Plant response rating, Barnyardgrass [8, 27]: 0; Plant response rating, Barnyardgrass [8, 28]: 0; Plant response rating, Barnyardgrass [8, 30]: 60; Plant response rating, Ducksalad [9, 27]: 50; Plant response rating, Ducksalad [9, 28]: 60; Plant response rating, Ducksalad [9, 30]: 95; Ragweed plant response rating [4, 26]: 30"
O=C1NCC(c2ccc(F)cc2)C1C(=O)Nc1cccc(F)c1F (racemic) [Compound 119],,,,,,50,,,,,,,,,,,60,100,"Plant response rating, Barnyardgrass [8, 27]: 30; Plant response rating, Barnyardgrass [8, 28]: 50; Plant response rating, Barnyardgrass ([8]; 250 g ai/ha, scale 0 to 100): 75; Plant response rating, Ducksalad [9, 27]: 100; Plant response rating, Ducksalad [9, 28]: 100; Plant response rating, Ducksalad ([9]; 250 g ai/ha, scale 0 to 100): 100; Plant response rating, Blackgrass [2, 31]: 30; Plant response rating, Galium [3, 31]: 30; Galium plant response rating (0 to 100 scale, 0 is no effect, 100 is complete control) ([3]; 500 g ai/ha): 50; Plant response rating, Ragweed [4, 32]: 70; Plant response rating, Ragweed [4, 20]: 20; Ragweed plant response rating (0 to 100 scale, 0 is no effect, 100 is complete control) ([4]; Postemergence, 500 g ai/ha): 30; Plant response rating, Ragweed [4, 21]: 80"
O=C1NCC(c2cccc(C(F)F)c2)C1C(=O)Nc1cccc(F)c1F (racemic) [Compound 211],,,,,50,,60,,,,,80,,,,,0,60,"Plant response rating, Barnyardgrass [8, 30]: 50; Plant response rating, Barnyardgrass ([8]; 500 g ai/ha, scale 0 to 100): 55; Plant response rating, Barnyardgrass ([8]; 1000 g ai/ha, scale 0 to 100): 80; Plant response rating, Ducksalad [9, 30]: 100; Plant response rating, Ducksalad ([9]; 500 g ai/ha, scale 0 to 100): 75; Plant response rating, Ducksalad ([9]; 1000 g ai/ha, scale 0 to 100): 100; Blackgrass plant response rating (0 to 100 scale, 0 is no effect, 100 is complete control) ([2]; 500 g ai/ha): 70; Galium plant response rating (0 to 100 scale, 0 is no effect, 100 is complete control) ([3]; 500 g ai/ha): 70; Plant response rating, Ragweed [4, 32]: 30; Plant response rating, Ragweed ([4]; Postemergence, 125 g ai/ha, 0 to 100 scale, 0 is no effect, 100 is complete control): 0; Ragweed plant response rating (0 to 100 scale, 0 is no effect, 100 is complete control) ([4]; Postemergence, 500 g ai/ha): 30"
O=C1NCC(c2cc(F)c(F)c(F)c2)C1C(=O)Nc1ccccc1F (racemic) [Compound 34],,,5,5,,,,,,,,,0,0,,,,,"Plant response rating, Morningglory [5, 33]: 20; Plant response rating, Velvetleaf [6, 33]: 20; Plant response rating, Velvetleaf [6, 34]: 0; Plant response rating, Crabgrass, Large [7, 33]: 90; Plant response rating, Crabgrass, Large [7, 34]: 90"
